Laboratory results taken from patent publication US7332602B2, “Pyridyl substituted heterocycles useful for treating or preventing HCV infection” (Rigel Pharmaceuticals, Inc., priority 2002, dated 2008).
pIC50: −log10 of the molar value. Like-named read-outs stand apart in the source and are kept apart here.

Experiments:
[1] = test system: HCV replicon (5-2 Luc replicon-comprising cells); experiment: HCV replicon assay (luciferase reporter); assay type: cell-based, Hepatitis C virus; details: Hepatitis C virus, read-out: Replicon (IC50, 50% reduction in luciferase emission)
Experimental: The inhibitory activity of certain exemplary compounds of the invention was confirmed using an HCV replicon assay. The HCV replicon can include such features as the HCV IRES, the HCV 3′ untranslated region, selected HCV genes encoding HCV polypeptides, selectable markers, and a reporter gene such as luciferase, GEP, etc. In the assay, actively dividing 5-2 Luc replicon-comprising cells were seeded at a density of between about 5,000 and 7,500 cells/well onto 96 well plates (about 90 μl of cells per well) and incubated at 37° C. and 5% CO2 for 24 hours. Then, the test compound (in a volume of about 10 μl) was added at various concentrations to each well and the cells were incubated for an additional 24 hours before luciferase assay. The cells were harvested, and HCV replication or translation was monitored via a reporter assay, e.g., a luciferase reporter assay. The media was aspirated from each cell and Bright-Glo ([…].) luciferase assay reagents were added to each well according to the manufacturer's instructions. In this assay, the amount of test compound that yielded a 50% reduction in luciferase emission (IC50) was determined.

[2] = cytotoxicity assay (Cell Titer Glo); assay type: cell-based; details: human; 48 hr with compound, ATP-dependent Cell Titer Glo; read-out: IC50 (cytotoxicity, number of viable cells)
Experimental: Compounds 1, 3, 7, 9, 11, 13, 17, 19, 21, 27, 29, 31, 33, 35, 37, 39, 47, 49, 51, 57 and 69 were tested in a cytotoxicity assay with liver cells including an HCV replicon (5-2 Luc cells, 9-13 cells or Huh-7 cells). In the assay, cells were seeded onto 96-well plates (approx. 7500 cells/well in a volume of 90 μl) and grown for 24 hr at 37° C. On day 2, various concentrations of test compound (in a volume of 10 μl) were added to the wells and the cells were grown for an additional 48 hr at 37° C. On day 4, an ATP-dependent R-Luciferase assay (Cell Titer Glo assay) was performed to determine the number of viable cells.

[3] = test system: HCV proteins (HCV replication); experiment: quantitative Western blot analysis with antibodies specific for certain HCV proteins; assay type: cell-based, Hepatitis C virus; details: Hepatitis C virus, read-out: Western (IC50, 50% reduction in the amount of the specified HCV protein)
Experimental: Certain exemplary compounds of the invention were also tested for their ability to inhibit HCV replication using a quantitative Western blot analysis with antibodies specific for certain HCV proteins. In this assay, the amount of test compound that yielded a 50% reduction in the amount of the specified HCV protein as compared to a control sample (IC50) was determined.

[4] = first symbol of the Replicon/Western cell, 5-2 Luc replicon cells, 24 hours with compound
[5] = second symbol of the Replicon/Western cell

Structure (SMILES) | pIC50 [1, 4] | IC50 at 48 h [2] [µM] | pIC50 [3, 5] | pIC50 ([1]; 24 h) | pIC50 [3]
COc1cccc(F)c1-c1cc(-c2cncc(NC(=O)C(Cl)Cl)c2)on1 [Compound 17, 272-Dichloro-N-[5-[3-(2-fluoro-6-methoxyphenyl)-5-isoxazolyl]-(3-pyridyl)] Acetamide] | > 5.00 | ≥ 10 | > 5.00 |  | 
COc1cccc(C(F)(F)F)c1-c1cc(-c2cncc(NC(=O)C(Cl)Cl)c2)on1 [Compound 57, 2,2-Dichloro-N-[5-[3-(2-methoxy-6-trifluoromethylphenyl)-5-isoxazolyl]-(3-pyridyl)] Acetamide] | > 5.00 | > 5 | > 5.00 |  | 
O=C(Nc1cncc(-c2cc(-c3c(F)cccc3F)no2)c1)C(Cl)Cl [Compound 27, 2,2-Dichloro-N-[5-[3-(2,6-difluorophenyl)-5-isoxazolyl]-(3-pyridyl)] Acetamide] | > 5.00 | ≥ 10 | > 5.00 |  | 
O=C(Nc1ccnc(-c2cc(-c3c(Cl)cccc3Cl)no2)c1)C(Cl)Cl [Compound 9, 2,2-Dichloro-N-[2-[3-(2,6-dichlorophenyl)-5-isoxazolyl]-(4-pyridyl)] Acetamide] |  | ≥ 10 |  | > 5.00 | > 5.00
COc1cccc(C(F)(F)F)c1-c1cc(-c2cc(NC(=O)C(Cl)Cl)ccn2)on1 [Compound 49, 2,2-Dichloro-N-[2-[3-(2-methoxy-6-trifluoromethylphenyl)-5-isoxazolyl]-(4-pyridyl)] Acetamide] | > 5.00 | ≥ 10 | > 5.00 |  | 
O=C(Nc1cncc(-c2cc(-c3c(Cl)cccc3Cl)no2)c1)C(Cl)Cl [Compound 7, 2,2-Dichloro-N-[5-[3-(2,6-dichlorophenyl)-5-isoxazolyl]-(3-pyridyl)] Acetamide] | > 5.00 | ≥ 10 | > 5.00 |  | 
O=C(Nc1cncc(-c2cc(-c3c(F)cccc3Cl)no2)c1)C(Cl)Cl [Compound 13, 2,2-Dichloro-N-[5-[3-(2-chloro-6-fluorophenyl)-5-isoxazolyl]-(3-pyridyl)] Acetamide] | > 5.00 | 3 | > 5.00 |  | 
